A short description of assay [1]: Inhibition of ND1 transcript level in human A2780 cells at 500 nM measured after 12 hrs by RT-qPCR analysis relative to control. The assay is classed as functional.
For another assay, the system named is A2780. The assay is described as follows: Antiproliferative activity against human A2780 cells incubated for 168 hrs by SRB method. The assay is classed as functional, cell-based. To be noted: A2780, 168 h.

In the case of `Cc1ccccc1-c1cc(=O)oc2cc(O[C@H](C)C(=O)N3CC4CCC(C3)N4)ccc12`, in assay [1], the inhibition at 0.5 µM is 8%. In the assay with A2780, half-maximal inhibition (IC50) was put at 0.031 µM.
The corresponding values for `C[C@@H](Oc1ccc2c(-c3ccc(F)cc3Cl)cc(=O)oc2c1)C(=O)NCCO` are 23% and 0.135 µM.
As to `C[C@@H](Oc1ccc2c(-c3ccc(F)cc3Cl)csc2c1)C(=O)N1CCC[C@H](C(=O)O)C1`, the inhibition at 0.5 µM in assay [1] stood at 89%. Also, the IC50 with A2780 was more than 10 µM.
The corresponding values for `C[C@@H](Oc1ccc2c(C34C[C@H]5C[C@H](C3)C[C@@H](C4)C5)cc(=O)oc2c1)C(=O)N1CC2CCC(C1)N2` are 22% and 0.092 µM.
The corresponding values for `O=C(O)[C@H]1CCCN(C(=O)C2CC(Oc3ccc4c(-c5ccc(F)cc5Cl)cc(=O)oc4c3)C2)C1` (stereo not given in full) are 101% and more than 10 µM.
The matching figures for `C[C@@H](Oc1ccc2c(-c3ccncc3)cc(=O)oc2c1)C(=O)N1CC2CCC(C1)N2`: 78% and 0.832 µM.
In the case of `Cc1cc(F)ccc1-c1cc(=O)oc2cc(O[C@H](C)C(=O)N3CC4CCC(C3)N4)ccc12`, in assay [1], the inhibition at 0.5 µM was determined as 12%. In the assay on A2780, this compound yielded an IC50 of 0.042 µM.
The corresponding values for `Cc1ccc(-c2cc(=O)oc3cc(O[C@H](C)C(=O)N4CC5CCC(C4)N5)ccc23)cc1` are 11% and 0.062 µM.
The corresponding values for `CC(=O)N1CCN(C(=O)[C@@H](C)Oc2ccc3c(-c4ccc(F)cc4Cl)cc(=O)oc3c2)CC1` are 27% and 0.225 µM.
The matching figures for `O=C(O)[C@H]1CCCN(C(=O)COc2ccc3c(-c4ccc(F)cc4Cl)cc(=O)oc3c2)C1`: 39% and 0.373 µM.
For `Cc1cc(C)c(-c2cc(=O)oc3cc(O[C@H](C)C(=O)N4CC5CCC(C4)N5)ccc23)c(C)c1`, the inhibition at 0.5 µM in assay [1] worked out at 16%. This compound returned an IC50 in the assay with A2780 of 0.074 µM.
Regarding `C[C@@H](Oc1ccc2c(-c3ccc(Cl)cc3)cc(=O)oc2c1)C(=O)N1CC2CCC(C1)N2`, the inhibition at 0.5 µM in assay [1] is 24%.
With `C[C@@H](Oc1ccc2c(-c3cc4ccccc4s3)cc(=O)oc2c1)C(=O)N1CC2CCC(C1)N2`, in assay [1], the inhibition at 0.5 µM was 85%. For the same compound, the IC50 in the assay with A2780 was 1.62 µM.
The matching figures for `CC(C)c1cc(=O)oc2cc(O[C@H](C)C(=O)N3CC4CCC(C3)N4)ccc12`: 93% and 2.23 µM.
On to `C[C@@H](Oc1ccc2c(-c3ccc(F)cc3Cl)cc(=O)oc2c1)C(=O)NCCN`, for which the inhibition at 0.5 µM in assay [1] is 26%. This compound gave an IC50 in the assay on A2780 of 0.282 µM.
For the compound `C[C@@H](Oc1cccc(-c2ccc(F)cc2Cl)c1)C(=O)N1CCC[C@H](C(=O)O)C1`, in assay [1], the inhibition at 0.5 µM came to 95%. This compound yielded an IC50 in the assay on A2780 of more than 10 µM.
The corresponding values for `C[C@@H](Oc1ccc2c(-c3ccc(F)cc3Cl)cccc2c1)C(=O)N1CCC[C@H](C(=O)O)C1` are 45% and 0.652 µM.
Regarding `Cc1cc(Cl)ccc1-c1cc(=O)oc2cc(O[C@H](C)C(=O)N3CC4CCC(C3)N4)ccc12`, in assay [1], the inhibition at 0.5 µM stood at 12%. The IC50 with A2780 came to 0.058 µM.
The matching figures for `C[C@@H](Oc1ccc2c(-c3ccc(F)cc3Cl)coc2c1)C(=O)N1CCC[C@H](C(=O)O)C1`: 105% and more than 10 µM.
The corresponding values for `C[C@@H](Oc1ccc2c(-c3ccc(F)cc3Cl)cc(=O)oc2c1)C(=O)NCc1ccco1` are 41% and 0.405 µM.
As to `C[C@@H](Oc1ccc2c(-c3ccc(F)cc3Cl)cc(=O)oc2c1)C(=O)N1C2CCC1CNC2`, the inhibition at 0.5 µM in assay [1] amounted to 15%. Besides, it took 0.065 µM to reach half-maximal inhibition in the assay with A2780 (IC50).
With `C[C@@H](Oc1ccc2c(-c3cccc(Cl)c3)cc(=O)oc2c1)C(=O)N1CC2CCC(C1)N2`, in assay [1], the inhibition at 0.5 µM came out at 32%. For the same compound, in the assay on A2780, the half-maximal inhibitory concentration (IC50) worked out at 0.246 µM.
The matching figures for `C[C@@H](Oc1ccc2c(ccn2-c2ccc(F)cc2Cl)c1)C(=O)N1CCC[C@H](C(=O)O)C1`: 97% and more than 10 µM.
The matching figures for `C[C@@H](Oc1ccc2c(C3CCCCC3)cc(=O)oc2c1)C(=O)N1CC2CCC(C1)N2`: 31% and 0.252 µM.
Take `C[C@@H](Oc1ccc2c(-c3cccc(F)c3)cc(=O)oc2c1)C(=O)N1CC2CCC(C1)N2`: the inhibition at 0.5 µM in assay [1] was 75%. Besides, the IC50 in the assay on A2780 worked out at 0.866 µM.
Consider `O=C(O)[C@H]1CCCN(C(=O)C2(Oc3ccc4c(-c5ccc(F)cc5Cl)cc(=O)oc4c3)CCC2)C1`, for which, in assay [1], the inhibition at 0.5 µM turned out to be 42%. The IC50 with A2780 was 0.692 µM.
The matching figures for `C[C@@H](Oc1ccc2c(-c3ccc(F)cc3Cl)cc(=O)oc2c1)C(=O)N1CCOCC1`: 25% and 0.093 µM.
The corresponding values for `C[C@@H](Oc1ccc2c(-c3ccsc3)cc(=O)oc2c1)C(=O)N1CC2CCC(C1)N2` are 24% and 0.129 µM.
Consider `C[C@@H](Oc1ccc2c(-c3ccccc3F)cc(=O)oc2c1)C(=O)N1CC2CCC(C1)N2`, for which, in assay [1], the inhibition at 0.5 µM worked out at 33%. The compound also gave a concentration for half-maximal inhibition (IC50) with A2780 of 0.216 µM.
The matching figures for `CC(=O)NCCNC(=O)[C@@H](C)Oc1ccc2c(-c3ccc(F)cc3Cl)cc(=O)oc2c1`: 26% and 0.181 µM.
The corresponding values for `C[C@@H](Oc1ccc2c(-c3ccc(F)cc3)cc(=O)oc2c1)C(=O)N1CC2CCC(C1)N2` are 44% and 0.453 µM.
Take `C[C@@H](Oc1ccc2c(-c3ccccc3)cc(=O)oc2c1)C(=O)N1CC2CCC(C1)N2`: the inhibition at 0.5 µM in assay [1] amounted to 43%. In addition, in the assay with A2780, the IC50 was 0.423 µM.
Turning to `C[C@@H](Oc1ccc2c(-c3ccc(F)cc3Cl)cc(=O)oc2c1)C(=O)NCCN(C)C`, the inhibition at 0.5 µM in assay [1] came out at 31%. In addition, the IC50 in the assay with A2780 came out at 0.2 µM.
The matching figures for `C[C@@H](Oc1ccc2c(-c3ccc(F)cc3Cl)cc(=O)oc2c1)C(=O)N1CCSCC1`: 34% and 0.302 µM.
The matching figures for `C[C@@H](Oc1ccc2c(-c3ccc(F)cc3Cl)cc(=O)oc2c1)C(=O)NCCC1CCOCC1`: 73% and 0.822 µM.
Turning to `C[C@@H](Oc1ccc2c(-c3ccc(F)cc3Cl)cc(=O)oc2c1)C(=O)N1CCC[C@H]1CO`, in assay [1], the inhibition at 0.5 µM stood at 42%. The compound further yielded a 50% inhibitory concentration (IC50) in the assay on A2780 of 0.432 µM.
On to `COCCNC(=O)[C@@H](C)Oc1ccc2c(-c3ccc(F)cc3Cl)cc(=O)oc2c1`, for which the inhibition at 0.5 µM in assay [1] is 25%. In the assay with A2780, this compound came in with an IC50 of 0.152 µM.
The matching figures for `C[C@@H](Oc1ccc2c(-c3ccc(F)cc3Cl)cc(=O)oc2c1)C(=O)N1CC2(COC2)C1`: 68% and 0.758 µM.
The matching figures for `C[C@@H](Oc1ccc2c(-c3ccc(F)cc3Cl)cc(=O)oc2c1)C(=O)N1CCS(=O)(=O)CC1`: 35% and 0.291 µM.
In the case of `C[C@H](Oc1ccc2c(-c3ccc(F)cc3Cl)cc(=O)oc2c1)C(=O)N1CCC[C@H](C(=O)O)C1`, the inhibition at 0.5 µM in assay [1] came to 34%. The compound also registered an IC50 with A2780 of 0.287 µM.
As for `C[C@@H](Oc1ccc(C(=O)c2ccc(F)cc2Cl)cc1)C(=O)N1CCC[C@H](C(=O)O)C1`, the inhibition at 0.5 µM in assay [1] came out at 99%. Besides, the IC50 in the assay with A2780 was more than 10 µM.
The matching figures for `C[C@@H](Oc1ccc2c(-c3cccc4ccccc34)cc(=O)oc2c1)C(=O)N1CC2CCC(C1)N2`: 67% and 0.562 µM.
For the compound `C[C@@H](Oc1ccc2c(-c3ccccc3Cl)cc(=O)oc2c1)C(=O)N1CC2CCC(C1)N2`, in assay [1], the inhibition at 0.5 µM is 15%. The compound further had an IC50 with A2780 of 0.052 µM.
With `C[C@@H](CO)NC(=O)[C@@H](C)Oc1ccc2c(-c3ccc(F)cc3Cl)cc(=O)oc2c1`, the inhibition at 0.5 µM in assay [1] stood at 32%. The compound further gave an IC50 in the assay on A2780 of 0.208 µM.
Consider `C[C@@H](Oc1ccc2c(-c3ccc(F)cc3Cl)cc(=O)oc2c1)C(=O)N1CC2CCC(C1)N2`, for which the inhibition at 0.5 µM in assay [1] stood at 8%. The compound further returned an IC50 in the assay with A2780 of 0.043 µM.
`C[C@@H](Oc1ccc2c(-c3ccc(F)cc3Cl)cc(=O)oc2c1)C(=O)NCCN1CCS(=O)(=O)CC1`: the inhibition at 0.5 µM in assay [1] came out at 86%. This compound returned an IC50 in the assay on A2780 of 2.52 µM.
Consider `Cc1cccc(-c2cc(=O)oc3cc(O[C@H](C)C(=O)N4CC5CCC(C4)N5)ccc23)c1`, for which the inhibition at 0.5 µM in assay [1] amounted to 25%. Besides, the concentration for half-maximal inhibition (IC50) in the assay on A2780 was found to be 0.125 µM.
On to `Cc1ccc(-c2cc(=O)oc3cc(O[C@H](C)C(=O)N4CC5CCC(C4)N5)ccc23)c(Cl)c1`, for which the inhibition at 0.5 µM in assay [1] was 28%. This compound registered an IC50 in the assay with A2780 of 0.131 µM.
The corresponding values for `C[C@@H](Oc1ccc2c(-c3ccc(F)cc3Cl)ncnc2c1)C(=O)N1CCC[C@H](C(=O)O)C1` are 93% and more than 10 µM.
With `C[C@@H](Oc1ccc2c(-c3ccc(F)cc3Cl)cc(=O)oc2c1)C(=O)NCCCO`, in assay [1], the inhibition at 0.5 µM came to 22%. This compound also had an IC50 with A2780 of 0.178 µM.
As for `C[C@@H](Oc1ccc2c(-c3ccc(Cl)cc3Cl)cc(=O)oc2c1)C(=O)N1CC2CCC(C1)N2`, the inhibition at 0.5 µM in assay [1] is 24%. In the assay on A2780, this compound gave a half-maximal inhibitory concentration (IC50) of 0.056 µM.
The corresponding values for `C[C@@H](Oc1ccc2c(-c3ccc(F)cc3Cl)cc(=O)oc2c1)C(=O)N1CCN(C)CC1` are 28% and 0.172 µM.
The matching figures for `C[C@@H](Oc1ccc2c(-c3ccc(F)cc3Cl)cc(=O)oc2c1)C(=O)N1CCNCC1`: 25% and 0.123 µM.
Regarding `CC(C)(Oc1ccc2c(-c3ccc(F)cc3Cl)cc(=O)oc2c1)C(=O)N1CCC[C@H](C(=O)O)C1`, the inhibition at 0.5 µM in assay [1] was determined as 43%. The IC50 in the assay on A2780 is 0.562 µM.
The corresponding values for `O=C(O)[C@H]1CCCN(C(=O)C(F)(F)Oc2ccc3c(-c4ccc(F)cc4Cl)cc(=O)oc3c2)C1` are 37% and 0.322 µM.
The corresponding values for `C[C@@H](Oc1ccc2c(-c3ccc(F)cc3Cl)cc(=O)oc2c1)C(=O)NCCN1CCOCC1` are 82% and 1.22 µM.
The matching figures for `C[C@@H](Oc1ccc2c(-c3ccc(F)cc3Cl)cc(=O)[nH]c2c1)C(=O)N1CCC[C@H](C(=O)O)C1`: 88% and more than 10 µM.
For `C[C@@H](Oc1ccc2c(-c3ccc(F)cc3Cl)cc(=O)oc2c1)C(=O)N1CC2CC(C1)N2`, in assay [1], the inhibition at 0.5 µM stood at 24%. The compound further came in with a 50% inhibitory concentration (IC50) with A2780 of 0.112 µM.

For the origin of these results see ChEMBL document CHEMBL5380844, “Discovery of a Novel, Potent, Orally Active, and Safe Inhibitor Targeting Human Mitochondrial RNA Polymerase” (J Med Chem, 2023).
